# PubChem BioAssay AID256 (DTP/NCI, 2004)
# Values joined by “and” are separate entries in the source; they are usually repeats but may differ in a detail not shown here. Identical values can stand only once. Inconclusive results and toxic doses are left out.
# Test system: CD2F1 mice, L1210 leukemia ip, survival T/C
# Assay: NCI In Vivo Anticancer Drug Screen. Data for tumor model L1210 Leukemia (intraperitoneal) in CD2F1 (CDF1) mice
# Conditions: higher = longer survival
# In short: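 Activity against a transplanted murine tumor was judged by comparing the compound group with a vehicle group. The outcome in the treated animals was divided by that in the controls.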
# [1] = endpoint: mean survival time, dose: 12.5 mg/kg/injection, schedule: Q01DX009 (ip), vehicle: saline with Tween-80
# [2] = endpoint: mean survival time, dose: 25.0 mg/kg/injection, schedule: Q01DX009 (ip), vehicle: saline with Tween-80
# [3] = endpoint: mean survival time, dose: 100.0 mg/kg/injection, schedule: Q04DX003 (ip), vehicle: saline with Tween-80
# [4] = endpoint: mean survival time, dose: 200.0 mg/kg/injection, schedule: Q04DX003 (ip), vehicle: saline with Tween-80
# [5] = endpoint: mean survival time, dose: 400.0 mg/kg/injection, schedule: Q04DX003 (ip), vehicle: saline with Tween-80
# [6] = endpoint: mean survival time, dose: 100.0 mg/kg/injection, schedule: Q01DX009 (ip), vehicle: saline with Tween-80
# [7] = endpoint: mean survival time, dose: 100.0 mg/kg/injection, schedule: Q04DX003 (ip), vehicle: saline
# [8] = endpoint: mean survival time, dose: 200.0 mg/kg/injection, schedule: Q04DX003 (ip), vehicle: saline
# [9] = endpoint: mean survival time, dose: 200.0 mg/kg/injection, schedule: Q01DX009 (ip), vehicle: saline with Tween-80
# [10] = endpoint: mean survival time, dose: 50.0 mg/kg/injection, schedule: Q01DX009 (ip), vehicle: saline with Tween-80
smiles,measurement,setting,value
CC(C)C(N)C(=O)Nc1nncs1 (configuration not stated),T/C,"endpoint: mean survival time, dose: 25.0 mg/kg/injection, schedule: Q01DX009 (ip), vehicle: saline",103 % of control
same,T/C,"endpoint: mean survival time, dose: 50.0 mg/kg/injection, schedule: Q01DX009 (ip), vehicle: saline",110 % of control
same,T/C,"endpoint: mean survival time, dose: 100.0 mg/kg/injection, schedule: Q01DX009 (ip), vehicle: saline",166 % of control
same,T/C,"endpoint: mean survival time, dose: 200.0 mg/kg/injection, schedule: Q01DX009 (ip), vehicle: saline",117 % of control and 97 % of control
same,T/C,"endpoint: mean survival time, dose: 400.0 mg/kg/injection, schedule: Q01DX009 (ip), vehicle: saline",89 % of control and 90 % of control
same,T/C,"endpoint: median survival time, dose: 12.5 mg/kg/injection, schedule: Q01DX009 (ip), vehicle: saline",94 % of control
same,T/C,"endpoint: median survival time, dose: 25.0 mg/kg/injection, schedule: Q01DX009 (ip), vehicle: saline",109 % of control and 112 % of control
same,T/C,"endpoint: median survival time, dose: 50.0 mg/kg/injection, schedule: Q01DX009 (ip), vehicle: saline",151 % of control
same,T/C,"endpoint: median survival time, dose: 100.0 mg/kg/injection, schedule: Q01DX009 (ip), vehicle: saline",158 % of control
same,T/C,"endpoint: median survival time, dose: 400.0 mg/kg/injection, schedule: Q01DX009 (ip), vehicle: saline",95 % of control
Nc1nc(N)c2nc(CCSc3ccc(C(=O)NC(CCC(=O)O)C(=O)O)cc3)cnc2n1 (configuration not stated),T/C,"endpoint: mean survival time, dose: 0.38 mg/kg/injection, schedule: Q01DX009 (ip), vehicle: sodium bicarbonate",96 % of control
same,T/C,"endpoint: mean survival time, dose: 0.75 mg/kg/injection, schedule: Q01DX009 (ip), vehicle: sodium bicarbonate",100 % of control
same,T/C,"endpoint: mean survival time, dose: 1.5 mg/kg/injection, schedule: Q01DX009 (ip), vehicle: sodium bicarbonate",104 % of control
same,T/C,"endpoint: mean survival time, dose: 3.0 mg/kg/injection, schedule: Q01DX009 (ip), vehicle: sodium bicarbonate",95 % of control
same,T/C,"endpoint: mean survival time, dose: 6.0 mg/kg/injection, schedule: Q01DX009 (ip), vehicle: sodium bicarbonate",91 % of control
same,T/C,"endpoint: mean survival time, dose: 12.0 mg/kg/injection, schedule: Q01DX009 (ip), vehicle: sodium bicarbonate",93 % of control
same,T/C,"endpoint: mean survival time, dose: 24.0 mg/kg/injection, schedule: Q01DX009 (ip), vehicle: sodium bicarbonate",102 % of control
same,T/C,"endpoint: mean survival time, dose: 48.0 mg/kg/injection, schedule: Q01DX009 (ip), vehicle: sodium bicarbonate",106 % of control
COC1=C(C)C(=O)c2c(c(COC(N)=O)c3n2CC2C3N2C)C1=O (configuration not stated),T/C,"endpoint: mean survival time, dose: 2.25 mg/kg/injection, schedule: Q01DX001 (ip), vehicle: acetone",103 % of control
same,T/C,"endpoint: mean survival time, dose: 2.9 mg/kg/injection, schedule: Q01DX001 (ip), vehicle: acetone",102 % of control
same,T/C,"endpoint: mean survival time, dose: 4.5 mg/kg/injection, schedule: Q01DX001 (ip), vehicle: acetone",110 % of control
same,T/C,"endpoint: mean survival time, dose: 6.75 mg/kg/injection, schedule: Q01DX001 (ip), vehicle: acetone",118 % of control
same,T/C,"endpoint: mean survival time, dose: 6.75 mg/kg/injection, schedule: Q01DX001 (ip), vehicle: saline",112 % of control
NC(=S)NN=C1CCCCC1,T/C,"endpoint: mean survival time, dose: 6.25 mg/kg/injection, schedule: Q01DX009 (ip), vehicle: saline with Tween-80",98 % of control
same,T/C,[1],96 % of control
same,T/C,[2],98 % of control
CC(C)CCCC(C)C1CCC2C3=CCC4CC(=O)CCC4(C)C3CCC21C (configuration not stated),T/C,[3],95 % of control
same,T/C,[4],92 % of control
same,T/C,[5],93 % of control
CN(C)c1ccc(N=Nc2ccc(CI)cc2)cc1,T/C,"endpoint: mean survival time, dose: 25.0 mg/kg/injection, schedule: Q04DX003 (ip), vehicle: Klucel (hydroxypropylcellulose) (HPC)",89 % of control
same,T/C,"endpoint: mean survival time, dose: 50.0 mg/kg/injection, schedule: Q04DX003 (ip), vehicle: Klucel (hydroxypropylcellulose) (HPC)",112 % of control
same,T/C,"endpoint: mean survival time, dose: 100.0 mg/kg/injection, schedule: Q04DX003 (ip), vehicle: Klucel (hydroxypropylcellulose) (HPC)",96 % of control
same,T/C,"endpoint: mean survival time, dose: 200.0 mg/kg/injection, schedule: Q04DX003 (ip), vehicle: Klucel (hydroxypropylcellulose) (HPC)",93 % of control
Cc1ccc(P(=S)(c2ccc(C)c3ccccc23)c2ccc(C)c3ccccc23)c2ccccc12,T/C,"endpoint: mean survival time, dose: 100.0 mg/kg/injection, schedule: Q01DX001 (ip), vehicle: saline",91 % of control
same,T/C,"endpoint: mean survival time, dose: 200.0 mg/kg/injection, schedule: Q01DX001 (ip), vehicle: saline",97 % of control
same,T/C,"endpoint: mean survival time, dose: 400.0 mg/kg/injection, schedule: Q01DX001 (ip), vehicle: saline",91 % of control
Nc1nc(N)c(-c2ccc(Cl)c(Cl)c2)c(CCc2ccc(NC(=O)Nc3ccc(S(=O)(=O)F)cc3)cc2)n1,T/C,"endpoint: mean survival time, dose: 50.0 mg/kg/injection, schedule: Q01DX001 (ip), vehicle: saline with Tween-80",91 % of control
same,T/C,"endpoint: mean survival time, dose: 100.0 mg/kg/injection, schedule: Q01DX001 (ip), vehicle: saline with Tween-80",91 % of control
same,T/C,"endpoint: mean survival time, dose: 200.0 mg/kg/injection, schedule: Q01DX001 (ip), vehicle: saline with Tween-80",94 % of control
CCn1c(-c2cccc(N)c2)cc(=O)n1-c1ccccc1,T/C,[3],98 % of control
same,T/C,[4],96 % of control
same,T/C,[5],90 % of control
Nc1ncnc(N)c1N,T/C,[6],112 % of control
FC(F)(F)c1ccc2c(c1)Nc1ccccc1S2,T/C,"endpoint: mean survival time, dose: 12.5 mg/kg/injection, schedule: Q04DX003 (ip), vehicle: saline",96 % of control and 98 % of control
same,T/C,"endpoint: mean survival time, dose: 25.0 mg/kg/injection, schedule: Q04DX003 (ip), vehicle: saline",96 % of control and 101 % of control
same,T/C,"endpoint: mean survival time, dose: 50.0 mg/kg/injection, schedule: Q04DX003 (ip), vehicle: saline",101 % of control and 104 % of control
same,T/C,[7],101 % of control and 104 % of control
same,T/C,[8],96 % of control and 98 % of control
CCCCCCCCCCCCSCCC(=O)O,T/C,[7],98 % of control
same,T/C,[8],98 % of control
same,T/C,"endpoint: mean survival time, dose: 400.0 mg/kg/injection, schedule: Q04DX003 (ip), vehicle: saline",97 % of control
COc1ccc(Cl)c2c1C1(CC(CC=O)C2)OCCO1 (configuration not stated),T/C,"endpoint: mean survival time, dose: 75.0 mg/kg/injection, schedule: Q01DX001 (ip), vehicle: other",100 % of control
same,T/C,"endpoint: mean survival time, dose: 150.0 mg/kg/injection, schedule: Q01DX001 (ip), vehicle: other",94 % of control
same,T/C,"endpoint: mean survival time, dose: 300.0 mg/kg/injection, schedule: Q01DX001 (ip), vehicle: other",94 % of control
CC(=O)OC1CCC2(C)C(CCC3C4CC=C(C(C)=O)C4(C)CCC32)C1 (configuration not stated),T/C,[6],92 % of control
same,T/C,[9],92 % of control
same,T/C,"endpoint: mean survival time, dose: 400.0 mg/kg/injection, schedule: Q01DX009 (ip), vehicle: saline with Tween-80",89 % of control
C[C@@H]1C[C@H]2[C@@H]3CCC4=CC(=O)C=C[C@]4(C)[C@@]3(F)[C@@H](O)C[C@]2(C)[C@@]1(O)C(=O)CO,T/C,"endpoint: mean survival time, dose: 3.12 mg/kg/injection, schedule: Q01DX009 (ip), vehicle: suspension in saline",116 % of control
same,T/C,"endpoint: mean survival time, dose: 6.25 mg/kg/injection, schedule: Q01DX009 (ip), vehicle: suspension in saline",108 % of control
same,T/C,"endpoint: mean survival time, dose: 12.5 mg/kg/injection, schedule: Q01DX009 (ip), vehicle: suspension in saline",108 % of control
same,T/C,"endpoint: mean survival time, dose: 25.0 mg/kg/injection, schedule: Q01DX009 (ip), vehicle: suspension in saline",122 % of control
same,T/C,"endpoint: mean survival time, dose: 50.0 mg/kg/injection, schedule: Q01DX009 (ip), vehicle: suspension in saline",110 % of control
Brc1ccc(C[N+]23CN4CN(CN(C4)C2)C3)cc1,T/C,[1],102 % of control
same,T/C,[2],102 % of control
same,T/C,[10],97 % of control
same,T/C,[6],96 % of control
same,T/C,[9],94 % of control
O=S(=O)(Oc1ccccc1)c1c(F)c(F)c(F)c(F)c1F,T/C,[2],94 % of control
same,T/C,[10],94 % of control
same,T/C,[6],90 % of control
same,T/C,[3],95 % of control
CCCc1cc(=O)[nH]c(SCC(=O)O)n1,T/C,"endpoint: mean survival time, dose: 100.0 mg/kg/injection, schedule: Q04DX002 (ip), vehicle: saline with Tween-80",98 % of control
same,T/C,"endpoint: mean survival time, dose: 200.0 mg/kg/injection, schedule: Q04DX002 (ip), vehicle: saline with Tween-80",98 % of control
same,T/C,"endpoint: mean survival time, dose: 400.0 mg/kg/injection, schedule: Q04DX002 (ip), vehicle: saline with Tween-80",92 % of control
O=[N+]([O-])c1ccc(N/N=C(\COc2ccccc2)c2ccccc2)c([N+](=O)[O-])c1,T/C,"endpoint: mean survival time, dose: 37.5 mg/kg/injection, schedule: Q01DX001 (ip), vehicle: saline with Tween-80",98 % of control
same,T/C,"endpoint: mean survival time, dose: 75.0 mg/kg/injection, schedule: Q01DX001 (ip), vehicle: saline with Tween-80",97 % of control
same,T/C,"endpoint: mean survival time, dose: 150.0 mg/kg/injection, schedule: Q01DX001 (ip), vehicle: saline with Tween-80",97 % of control
OC1C2CCC(C2)C1C(O)(C(F)(F)F)C(F)(F)F (configuration not stated),T/C,"endpoint: mean survival time, dose: 3.13 mg/kg/injection, schedule: Q01DX009 (ip), vehicle: saline",104 % of control
same,T/C,"endpoint: mean survival time, dose: 6.25 mg/kg/injection, schedule: Q01DX009 (ip), vehicle: saline",98 % of control
same,T/C,"endpoint: mean survival time, dose: 6.25 mg/kg/injection, schedule: Q04DX003 (ip), vehicle: saline with Tween-80",98 % of control
same,T/C,"endpoint: mean survival time, dose: 12.5 mg/kg/injection, schedule: Q01DX009 (ip), vehicle: saline",103 % of control
same,T/C,"endpoint: mean survival time, dose: 12.5 mg/kg/injection, schedule: Q04DX003 (ip), vehicle: saline with Tween-80",98 % of control
